# Assay results reported in article PMC8878047 (Pharmaceutics, 2022).
# Read-outs that look alike come from different tables or passages of the source.
# Columns and labels:
# E. coli [1] = test: Quasi-clinical trial on E. coli-infected AA broilers (drug-mixed feeding); settings: for Average Final Weight / Average Weight Gain / Average Increment of Weight / Cure Rate (%) / Survival Number: AA broilers; for Average Weight Gain: Table 7; for Average Increment of Weight: Table 8; for Cure Rate (%) / Survival Number: 6 d; for Survival Number: 50 per group
# Procedure: (§1) Then, broilers were randomly and equally divided into five different groups and marked as five groups. […] Note that the daily drug-mixed feeding ratio (g drug/kg feed) was indicated for the first 4 h every day, and unmedicated feed then followed. In addition, E. coli strains for the infection of chicken was supplied as a freeze-dried powder. They were revived and cultured according to the standard procedures. The strain was inoculated into a liquid medium and cultured in a 37 °C incubator for 6–8 h. We detected the concentration of the bacterial liquid to be 2.8 × 10^8 CFU/mL as the pathogenic concentration. Finally, all of the chickens except the healthy control group were intramuscularly injected with 0.5 mL of pathogenic bacteria, and all chickens were fasted for 4 h. After successfully simulating the bacterial infection of the chickens, the drug-mixed feeding chickens were continuously fed for 6 d. During this time, we observed their behavioral habits, mortality, and recovery rates.
# E. coli [2] = test: Quasi-clinical trial on E. coli-infected 817 broilers (drug-mixed feeding); settings: for Average Final Weight / Average Weight Gain / Average Increment of Weight / Cure Rate (%) / Survival Number: 817 broilers; for Average Weight Gain: Table 7; for Average Increment of Weight: Table 8; for Cure Rate (%) / Survival Number: 6 d; for Survival Number: 50 per group
# Procedure: as §1
# [3] = system: neutrophil cluster aggregation; test: CuSO4-induced inflammation model in Tg(mpx:eGFP) zebrafish; settings: 10 μM CuSO4 40 min, Tg(mpx:eGFP) 3 dpf
# [4] = system: wild type AB strain zebrafish; settings: 30 embryos per well
# Procedure: Zebrafish were incubated and grown in the Joint Laboratory established by Shandong Rui’ying Pharmaceutical Group (Heze, China) and China Pharmaceutical University. Both the Wild-type AB (Danio rerio) and Tg(mpx:eGFP) zebrafish strains were maintained under the guidance of the standard procedures of The Zebrafish Book. […] Then the zebrafish were allowed to naturally mate and spawn the next morning. The normally born embryos were then collected after 1 h and kept in an incubating system at 28 °C. The 6 hpf (hour post fertilization) embryos were transferred into a 6-well plate exposed to 5 mL of egg water, in which 30 embryos were in each well.
# [5] = EFX-Ca High 14 g drug (5% solution) + 1.5 kg feed/4 h
# [6] = EFX-Ca Low 6 g drug (5% solution) + 1.5 kg feed/4 h
# [7] = EFX-Ca Medium 9 g + 1.5 kg feed
# [8] = EFX-Ca Medium 9 g drug (5% solution) + 1.5 kg feed/4 h
# [9] = EFX-Ca High 14 g + 0.75 kg feed
# [10] = EFX-Ca High 14 g drug (5% solution) + 0.75 kg feed/4 h
# [11] = EFX-Ca Low 6 g drug (5% solution) + 0.75 kg feed/4 h
# [12] = EFX-Ca Medium 9 g + 0.75 kg feed
# [13] = EFX-Ca Medium 9 g drug (5% solution) + 0.75 kg feed/4 h
# [14] = 0.01 μM medicated bath, 120 hpf
structure (smiles),measurement,setting,value
"CCN1CCN(c2cc3c(cc2F)c(=O)c(C(=O)[O-])cn3C2CC2)CC1.CCN1CCN(c2cc3c(cc2F)c(=O)c(C(=O)[O-])cn3C2CC2)CC1.O.O.O.O.[Ca+2] [EFX-Ca, [Ca(EFX)2(H2O)4]·H2O]",Average Final Weight,E. coli [1]; EFX-Ca High 14 g + 1.5 kg feed,1750 ± 125 g
same,Average Weight Gain,E. coli [1]; EFX-Ca High 14 g + 1.5 kg feed,250
same,Average Increment of Weight,E. coli [1]; EFX-Ca High 14 g + 1.5 kg feed,230 g
same,Cure Rate (%),E. coli [1]; [5],60%
same,Survival Number,E. coli [1]; [5],30
same,Average Final Weight,E. coli [1]; EFX-Ca Low 6 g + 1.5 kg feed,1690 ± 95 g
same,Average Weight Gain,E. coli [1]; EFX-Ca Low 6 g + 1.5 kg feed,190
same,Average Increment of Weight,E. coli [1]; EFX-Ca Low 6 g + 1.5 kg feed,190 g
same,Cure Rate (%),E. coli [1]; [6],54%
same,Survival Number,E. coli [1]; [6],27
same,Average Final Weight,E. coli [1]; [7],1640 ± 73 g
same,Average Weight Gain,E. coli [1]; [7],140
same,Average Increment of Weight,E. coli [1]; [7],280 g
same,Cure Rate (%),E. coli [1]; [8],78%
same,Survival Number,E. coli [1]; [8],39
same,"highest cure rate, higher than the EFX dose group by","E. coli [1]; AA infected chickens, EFX-Ca medium dose vs EFX",25.8%
same,Average Final Weight,E. coli [2]; [9],1000 ± 51 g
same,Average Weight Gain,E. coli [2]; [9],70
same,Average Increment of Weight,E. coli [2]; [9],80 g
same,Cure Rate (%),E. coli [2]; [10],58%
same,Survival Number,E. coli [2]; [10],29
same,Average Final Weight,E. coli [2]; EFX-Ca Low 6 g + 0.75 kg feed,1210 ± 67 g
same,Average Weight Gain,E. coli [2]; EFX-Ca Low 6 g + 0.75 kg feed,280
same,Average Increment of Weight,E. coli [2]; EFX-Ca Low 6 g + 0.75 kg feed,260 g
same,Cure Rate (%),E. coli [2]; [11],88%
same,Survival Number,E. coli [2]; [11],44
same,Average Final Weight,E. coli [2]; [12],1010 ± 61 g
same,Average Weight Gain,E. coli [2]; [12],80
same,Average Increment of Weight,E. coli [2]; [12],140 g
same,Cure Rate (%),E. coli [2]; [13],80%
same,Survival Number,E. coli [2]; [13],40
same,"highest cure rate, higher than the EFX dose group by","E. coli [2]; 817 infected chickens, EFX-Ca low dose vs EFX",37.5%
same,CuSO4-induced neutrophil aggregation,[3]; 0.1 μM pre-incubation 1 h,significantly dispersed
same,CuSO4-induced neutrophil aggregation,[3]; 1 μM pre-incubation 1 h,the neutrophil aggregation was more effectively inhibited
same,statistical death of the tested zebrafish,"[4]; 0.01 μM medicated bath, 24 hpf",6
same,statistical survival of the tested zebrafish,"[4]; 0.01 μM medicated bath, 24 hpf",24
same,statistical death of the tested zebrafish,"[4]; 0.01 μM medicated bath, 48 hpf",6
same,statistical survival of the tested zebrafish,"[4]; 0.01 μM medicated bath, 48 hpf",24
same,statistical death of the tested zebrafish,"[4]; 0.01 μM medicated bath, 72 hpf",6
same,statistical survival of the tested zebrafish,"[4]; 0.01 μM medicated bath, 72 hpf",24
same,statistical death of the tested zebrafish,"[4]; 0.01 μM medicated bath, 96 hpf",8
same,statistical survival of the tested zebrafish,"[4]; 0.01 μM medicated bath, 96 hpf",22
same,statistical death of the tested zebrafish,[4]; [14],8
same,statistical survival of the tested zebrafish,[4]; [14],22
same,statistical death of the tested zebrafish,"[4]; 0.1 μM medicated bath, 24 hpf",4
same,statistical survival of the tested zebrafish,"[4]; 0.1 μM medicated bath, 24 hpf",26
same,statistical death of the tested zebrafish,"[4]; 0.1 μM medicated bath, 48 hpf",4
same,statistical survival of the tested zebrafish,"[4]; 0.1 μM medicated bath, 48 hpf",26
same,statistical death of the tested zebrafish,"[4]; 0.1 μM medicated bath, 72 hpf",4
same,statistical survival of the tested zebrafish,"[4]; 0.1 μM medicated bath, 72 hpf",26
same,statistical death of the tested zebrafish,"[4]; 0.1 μM medicated bath, 96 hpf",4
same,statistical survival of the tested zebrafish,"[4]; 0.1 μM medicated bath, 96 hpf",26
same,statistical death of the tested zebrafish,"[4]; 0.1 μM medicated bath, 120 hpf",4
same,statistical survival of the tested zebrafish,"[4]; 0.1 μM medicated bath, 120 hpf",26
same,statistical death of the tested zebrafish,"[4]; 1 μM medicated bath, 24 hpf",2
same,statistical survival of the tested zebrafish,"[4]; 1 μM medicated bath, 24 hpf",28
same,statistical death of the tested zebrafish,"[4]; 1 μM medicated bath, 48 hpf",2
same,statistical survival of the tested zebrafish,"[4]; 1 μM medicated bath, 48 hpf",28
same,statistical death of the tested zebrafish,"[4]; 1 μM medicated bath, 72 hpf",2
same,statistical survival of the tested zebrafish,"[4]; 1 μM medicated bath, 72 hpf",28
same,statistical death of the tested zebrafish,"[4]; 1 μM medicated bath, 96 hpf",2
same,statistical survival of the tested zebrafish,"[4]; 1 μM medicated bath, 96 hpf",28
same,statistical death of the tested zebrafish,"[4]; 1 μM medicated bath, 120 hpf",2
same,statistical survival of the tested zebrafish,"[4]; 1 μM medicated bath, 120 hpf",28
same,statistical death of the tested zebrafish,"[4]; 10 μM medicated bath, 24 hpf",4
same,statistical survival of the tested zebrafish,"[4]; 10 μM medicated bath, 24 hpf",26
same,statistical death of the tested zebrafish,"[4]; 10 μM medicated bath, 48 hpf",4
